Reference: patent publication US20220016112A1, “DIHYDROQUINOXALINE AND DIHYDROPYRIDOPYRAZINE DERIVATIVES AS RSV INHIBITORS” (Enanta Pharmaceuticals, Inc., priority 2020, published 2022)

Tested on: Human RSV-A (“Long” strain)
Assay: RSV in vitro cytoprotection assay in HEp-2 cells (ATPlite readout)
Format: cell-based
Conditions: human respiratory syncytial virus, 96 h; HEp-2 cells, genotype A “Long” strain RSV, 4-day incubation, ATPlite; read-out: Human RSV-A (“Long” strain) EC50
Excerpt: RSV is a single stranded negative sense RNA virus that causes respiratory tract infections which can be dangerous to infants, the elderly, and immunosuppressed individuals. Currently there is no vaccine, and therapeutic options are both costly and of limited effectiveness. These approved treatments are Ribavirin, and Palivizumab/Synagis (a monoclonal antibody). RSV has two genotypes, A and B, which differ primarily in the structure of the virus' surface “G” attachment protein. Our current primary screen focusses on RSV-A and uses an in vitro cytoprotection assay where compounds are added in 2-fold dilutions to cells which are then subjected to fully replicative viral particles. Cell viability is measured several days later along with separate measurements of compound cytotoxicity. This report focuses on the results of our most recent screening of compounds.
HEp-2 cells, (originally derived from tumors grown in irradiated-cortisonised weanling rats that had been injected with epidermoid carcinoma tissue from a person's larynx, but later found to be indistinguishable from HeLa cells by PCR DNA analysis), were used for the culturing of genotype A, “Long” strain RSV. Flasks were inoculated with RSV and viral stocks were collected once cytopathic effect (CPE) was greater than 90%. Viral stocks in 25% sucrose media were snap frozen using liquid nitrogen to increase viral stability. Viral stock titers were quantified by tissue culture infectious dose 50% (TCID50) using 8,000 cells per well and 3-fold viral dilutions across a 96-well plate, cultured for 4 days.
Following extensive parameter testing, the final assay is run as follows: HEp-2 cells are seeded into the inner 60 wells of a 96-well plate at 8,000 cells per well in a volume of 50 μL using Growth Media (DMEM without phenol red, 1% L-Glut, 1% Penn/Strep, 1% nonessential amino acids, 10% FBS). 2-Fold serial dilutions of control and test compounds are added to the wells in duplicate in a total volume of 25 μL. Viral stock is then added to the wells in a volume of 25 μL, bringing the total volume of each well to 100 μL. Each 96-well plate has a control column of 6 wells with cells and virus but no compound (negative control, max CPE), a column with cells but no compound or virus (positive control, minimum CPE), and a column with no cells or virus or compound (background plate/reagent control). The control wells with cells but no virus are given an additional 25 uL of growth media containing an equal quantity of sucrose as those wells receiving the viral stock in order to keep consistent in media and volume conditions. The outer wells of the plate are filled with 125 μL of growth media to act as a thermal and evaporative moat around the test wells. Following a 4-day incubation period, the plates are read using ATPlite (50 uL added per well), which quantifies the amount of ATP (a measure of cell health) present in each well. Assay plates are read using the Envision luminometer. In parallel, cytotoxicity is examined on an additional 96-well plate treated in an identical manner, but substituting the 25 μL of viral stock for 25 μL of growth media. […] EC50 ranges are as follows: A<0.01 μM; B 0.01-0.05 μM; C>0.05 μM.

EC50 [nM] | Compound
10 to 50 | Cc1cnc(N2CC3(CCOCC3)C2)c(C(=O)Nc2ccc(C(=O)N3c4ccccc4N=C(c4ccc(C(=O)Nc5ncccc5F)s4)[C@H]3C)cc2)c1 [Example 14]
< 10 | Cc1ccc(C(=O)Nc2ccc(C(=O)N3c4ccccc4N=C(c4ccc(C(=O)NC5CC5)s4)[C@H]3C)cc2)c(N2CC3(CCOCC3)C2)n1 [Example 15]
< 10 | Cc1ccc(C(=O)Nc2ccc(C(=O)N3c4ccccc4N=C(c4ccc(C(=O)NC5CCC5)s4)[C@H]3C)cc2)c(N2CC3(CCOCC3)C2)n1 [Example 16]
< 10 | C[C@@H]1C(c2ccc(C(=O)NC3CC3)s2)=Nc2ccccc2N1C(=O)c1ccc(NC(=O)c2cc3c(nc2N2CC4(CCOCC4)C2)CCC3)cc1 [Example 17]
< 10 | C[C@@H]1C(c2ccc(C(=O)NC3CCC3)s2)=Nc2ccccc2N1C(=O)c1ccc(NC(=O)c2cc3c(nc2N2CC4(CCOCC4)C2)CCC3)cc1 [Example 18]
< 10 | C[C@@H]1C(c2ccc(C(=O)NC3CC3)s2)=Nc2ccccc2N1C(=O)c1ccc(NC(=O)c2cc(C3CC3)cnc2N2CC3(CCOCC3)C2)cc1 [Example 19]
< 10 | C[C@@H]1C(c2ccc(C(=O)NC3CCC3)s2)=Nc2ccccc2N1C(=O)c1ccc(NC(=O)c2cc(C3CC3)cnc2N2CC3(CCOCC3)C2)cc1 [Example 20]
< 10 | CCc1cnc(N2CC3(CCOCC3)C2)c(C(=O)Nc2ccc(C(=O)N3c4ccccc4N=C(c4ccc(C(=O)NC5CC5)s4)[C@H]3C)cc2)c1 [Example 21]
< 10 | CCc1cnc(N2CC3(CCOCC3)C2)c(C(=O)Nc2ccc(C(=O)N3c4ccccc4N=C(c4ccc(C(=O)NC5CCC5)s4)[C@H]3C)cc2)c1 [Example 22]
10 to 50 | C[C@@H]1C(c2ccc(C(=O)NC3CC3)s2)=Nc2ccccc2N1C(=O)c1ccc(NC(=O)c2cc(C(F)(F)F)cnc2N2CC3(CCOCC3)C2)cc1 [Example 23]
10 to 50 | C[C@@H]1C(c2ccc(C(=O)NC3CCC3)s2)=Nc2ccccc2N1C(=O)c1ccc(NC(=O)c2cc(C(F)(F)F)cnc2N2CC3(CCOCC3)C2)cc1 [Example 24]
> 50 | Cc1cnc(N2CC3(CCOCC3)C2)c(C(=O)Nc2ccc(C(=O)N3c4ccccc4N=C(c4ccc(C(=O)NC5CC5)cc4)[C@H]3C)cc2)c1 [Example 25]
> 50 | Cc1cnc(N2CC3(CCOCC3)C2)c(C(=O)Nc2ccc(C(=O)N3c4ccccc4N=C(c4ccc(C(=O)Nc5c(C)cccc5F)cc4)[C@H]3C)cc2)c1 [Example 26]
> 50 | Cc1cnc(N2CC3(CCOCC3)C2)c(C(=O)Nc2ccc(C(=O)N3c4ccccc4N=C(c4ccc(C(=O)NC5CC5)s4)C3(C)C)cc2)c1 [Example 27]
< 10 | Cc1cnc(N2CC3(CCOCC3)C2)c(C(=O)Nc2ccc(C(=O)N3c4ccccc4N=C(c4ccc(C(=O)NC5CCC5)s4)C3(C)C)cc2)c1 [Example 28]
10 to 50 | Cc1cnc(N2CC3(CCOCC3)C2)c(C(=O)Nc2ccc(C(=O)N3c4cccnc4N=C(c4ccc(C(=O)NC5CCC5)s4)[C@H]3C)cc2)c1 [Example 29]
> 50 | Cc1cnc(N2CC3(CCOCC3)C2)c(C(=O)Nc2ccc(C(=O)N3c4ncccc4N=C(c4ccc(C(=O)NC5CC5)s4)[C@H]3C)cc2)c1 [Example 30]
10 to 50 | Cc1cnc(N2CC3(CCOCC3)C2)c(C(=O)Nc2ccc(C(=O)N3c4ncccc4N=C(c4ccc(C(=O)NC5CCC5)s4)[C@H]3C)cc2)c1 [Example 31]

Further lines, the compound ahead of its results:

Compound | EC50 [nM]
Cc1cnc(N2CC3(CCOCC3)C2)c(C(=O)Nc2ccc(C(=O)N3c4ccccc4N=C(c4ccc(C(=O)NC5CC5)s4)[C@@H]3C)cc2)c1 [Example 1] | 10 to 50
Cc1cnc(N2CC3(CCOCC3)C2)c(C(=O)Nc2ccc(C(=O)N3c4ccccc4N=C(c4ccc(C(=O)Nc5c(C)cccc5F)s4)[C@@H]3C)cc2)c1 [Example 2] | > 50
Cc1cnc(N2CC3(CCOCC3)C2)c(C(=O)Nc2ccc(C(=O)N3c4ccccc4N=C(c4ccc(C(=O)NC5CCC5)s4)[C@@H]3C)cc2)c1 [Example 3] | > 50
Cc1cnc(N2CC3(CCOCC3)C2)c(C(=O)Nc2ccc(C(=O)N3c4ccccc4N=C(c4ccc(C(=O)NC5CC5)cc4)[C@@H]3C)cc2)c1 [Example 4] | > 50
Cc1cnc(N2CC3(CCOCC3)C2)c(C(=O)Nc2ccc(C(=O)N3c4ccccc4N=C(c4ccc(C(=O)Nc5c(C)cccc5F)cc4)[C@@H]3C)cc2)c1 [Example 5] | > 50
Cc1cnc(N2CC3(CCOCC3)C2)c(C(=O)Nc2ccc(C(=O)N3c4ccccc4N=C(c4ccc(C(=O)NC5CC5)s4)[C@H]3C)cc2)c1 [Example 6] | < 10
Cc1cnc(N2CC3(CCOCC3)C2)c(C(=O)Nc2ccc(C(=O)N3c4ccccc4N=C(c4ccc(C(=O)Nc5c(C)cccc5F)s4)[C@H]3C)cc2)c1 [Example 7] | 10 to 50
Cc1cnc(N2CC3(CCOCC3)C2)c(C(=O)Nc2ccc(C(=O)N3c4ccccc4N=C(c4ccc(C(=O)NC5(C)CC5)s4)[C@H]3C)cc2)c1 [Example 8] | < 10
Cc1cnc(N2CC3(CCOCC3)C2)c(C(=O)Nc2ccc(C(=O)N3c4ccccc4N=C(c4ccc(C(=O)NC5CCC5)s4)[C@H]3C)cc2)c1 [Example 9] | < 10
Cc1cnc(N2CC3(CCOCC3)C2)c(C(=O)Nc2ccc(C(=O)N3c4ccccc4N=C(c4ccc(C(=O)NC5CC(F)(F)C5)s4)[C@H]3C)cc2)c1 [Example 10] | 10 to 50
Cc1cnc(N2CC3(CCOCC3)C2)c(C(=O)Nc2ccc(C(=O)N3c4ccccc4N=C(c4ccc(C(=O)NC5(C)CCC5)s4)[C@H]3C)cc2)c1 [Example 11] | < 10
Cc1cnc(N2CC3(CCOCC3)C2)c(C(=O)Nc2ccc(C(=O)N3c4ccccc4N=C(c4ccc(C(=O)NC56CC(C5)C6)s4)[C@H]3C)cc2)c1 [Example 12] | < 10
Cc1cnc(N2CC3(CCOCC3)C2)c(C(=O)Nc2ccc(C(=O)N3c4ccccc4N=C(c4ccc(C(=O)NC56CC(C)(C5)C6)s4)[C@H]3C)cc2)c1 [Example 13] | < 10

Same assay, conditions: human respiratory syncytial virus, HEp-2

Compound | EC50 [nM]
O=C(Nc1ccccc1F)N[C@H]1N=C(c2ccccc2)c2ccccc2NC1=O [RSV-604, reference compound] | ~2400
